Laboratory results from article PMC10017709, “Structural basis of selective cannabinoid CB2 receptor activation” (Nature Communications, 2023).
Where “and” joins values, the source holds several entries; their conditions need not be identical. Equal entries are not always repeated.

How the values were obtained:
CB2R-Quadruple^TM1,7 [1] = target: T1, CB2R-Quadruple^TM1,7 (Homo sapiens, UniProt P34972, C40S/K279T/K33Q/V36I); experiment: [35S]GTPγS assay, CB2R quadruple mutant; format: biochemical; conditions: QuadrupleTM1,7, individual replicates
CB2R-I110^3.29L = CB2R-I110^3.29L (Homo sapiens, UniProt P34972, I110L); experiment: [3H]CP55,940 displacement assay, CB2R I110L mutant; format: binding; conditions: for percentage specific [3H]CP55,940 binding: I1103.29L, individual replicates
CB2R-Quadruple^TM1,7 [2] = target: T1, CB2R-Quadruple^TM1,7; experiment: [3H]CP55,940 displacement assay, CB2R quadruple mutant; format: binding; conditions: for percentage specific [3H]CP55,940 binding: QuadrupleTM1,7, individual replicates
hCB1R WT [3] = target: T2, hCB1R WT (Homo sapiens, UniProt P21554); experiment: [3H]CP55,940 displacement assay, CB1R WT; format: binding
CB1R-L359^6.51V [4] = target: T3, CB1R-L359^6.51V (Homo sapiens, UniProt P21554, L359V); experiment: [3H]CP55,940 displacement assay, CB1R L359V mutant; format: binding; conditions: CB1R L3596.51V; 10 µM ligand; replicates 1-3
CB1R-H270^ECL2L [5] = target: T4, CB1R-H270^ECL2L (Homo sapiens, UniProt P21554, H270L); experiment: [3H]CP55,940 displacement assay, CB1R H270L mutant; format: binding
CB1R I267ECL2L [6] = target: T5, CB1R I267ECL2L (Homo sapiens, UniProt P21554, I267L); experiment: [3H]CP55,940 displacement assay, CB1R I267L mutant; format: binding
CB1R QuadrupleTM1,7 [7] = target: T6, CB1R QuadrupleTM1,7 (Homo sapiens, UniProt P21554, I119V/Q116K/S123C/T377K); experiment: [3H]CP55,940 displacement assay, CB1R quadruple mutant; format: binding
T6 construct: The WT CB1R and CB2R genes were subcloned into vector pcDNA3.1; HA signal peptide (N); expressed in transfected cells; host or cells: HEK293T (transient, membrane homogenates)

hCB1R WT [8] = target: T2, hCB1R WT; experiment: [35S]GTPγS G protein activation assay, CB1R WT; format: biochemical; conditions: CB1R WT
CB1R-L359^6.51V [9] = target: T3, CB1R-L359^6.51V; experiment: [35S]GTPγS assay, CB1R L359V mutant; format: biochemical
CB1R-H270^ECL2L [10] = target: T4, CB1R-H270^ECL2L; experiment: [35S]GTPγS assay, CB1R H270L mutant; format: biochemical
CB1R I267ECL2L [11] = target: T5, CB1R I267ECL2L; experiment: [35S]GTPγS assay, CB1R I267L mutant; format: biochemical
CB1R D266ECL2E = target: T7, CB1R D266ECL2E (Homo sapiens, UniProt P21554, D266E); experiment: [35S]GTPγS assay, CB1R D266E mutant; format: biochemical
T7 construct: The WT CB1R and CB2R genes were subcloned into vector pcDNA3.1; HA signal peptide (N); expressed in transfected cells; host or cells: HEK293T (transient, membrane homogenates)

CB1R QuadrupleTM1,7 [12] = experiment: [35S]GTPγS assay, CB1R quadruple mutant; format: biochemical, human

T5 sequence (P21554 whole entry I267L): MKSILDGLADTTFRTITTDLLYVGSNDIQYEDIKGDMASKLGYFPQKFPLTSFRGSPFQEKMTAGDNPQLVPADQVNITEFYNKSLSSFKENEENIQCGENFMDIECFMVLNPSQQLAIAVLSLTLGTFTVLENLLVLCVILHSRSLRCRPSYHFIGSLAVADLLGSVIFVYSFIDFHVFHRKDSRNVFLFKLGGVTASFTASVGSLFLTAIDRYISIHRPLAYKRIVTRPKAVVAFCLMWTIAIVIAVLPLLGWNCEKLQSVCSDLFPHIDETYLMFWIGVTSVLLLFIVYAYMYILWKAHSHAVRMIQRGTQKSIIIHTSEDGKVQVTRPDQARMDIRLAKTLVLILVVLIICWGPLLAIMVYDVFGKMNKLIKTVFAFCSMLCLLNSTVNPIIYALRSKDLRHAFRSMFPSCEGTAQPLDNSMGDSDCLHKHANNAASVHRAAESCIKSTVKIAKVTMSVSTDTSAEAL
T2 sequence (P21554 whole entry): as the sequence (P21554 whole entry I267L) above, with L267I counted along it
CB2R-I110^3.29L, sequence (P34972 whole entry I110L): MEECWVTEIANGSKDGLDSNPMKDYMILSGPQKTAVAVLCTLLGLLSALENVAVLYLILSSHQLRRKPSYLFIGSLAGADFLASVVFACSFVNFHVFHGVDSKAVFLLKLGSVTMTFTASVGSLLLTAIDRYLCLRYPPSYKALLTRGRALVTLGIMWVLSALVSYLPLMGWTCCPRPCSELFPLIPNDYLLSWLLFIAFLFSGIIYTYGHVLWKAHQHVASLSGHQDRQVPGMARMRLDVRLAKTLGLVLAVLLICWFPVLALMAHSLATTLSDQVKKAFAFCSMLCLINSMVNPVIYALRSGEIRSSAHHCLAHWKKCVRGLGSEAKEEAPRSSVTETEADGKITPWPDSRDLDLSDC
T6 sequence (P21554 whole entry Q116K/I119V/S123C/T377K): as the sequence (P21554 whole entry I267L) above, with Q116K, I119V, S123C, L267I, T377K counted along it
T4 sequence (P21554 whole entry H270L): as the sequence (P21554 whole entry I267L) above, with L267I, H270L counted along it
T1 sequence (P34972 whole entry K33Q/V36I/C40S/K279T): as the sequence (P34972 whole entry I110L) above, with K33Q, V36I, C40S, L110I, K279T counted along it
T7 sequence (P21554 whole entry D266E): as the sequence (P21554 whole entry I267L) above, with D266E, L267I counted along it
T3 sequence (P21554 whole entry L359V): as the sequence (P21554 whole entry I267L) above, with L267I, L359V counted along it

## CC(C)CN1C(=O)CN(Cc2ccc(-c3ccc(F)c(CNC4CCOCC4)n3)cc2)C1=O [LEI-102, 1-(4-(5-fluoro-6-(((tetrahydro-2H-pyran-4-yl)amino)methyl)pyridin-2-yl)benzyl)-3-isobutylimidazolidine-2,4-dione]
CB2R-Quadruple^TM1,7 [1]; log [ligand] (M) -8
  [35S]GTPγS binding: -17.90 percentage of WT and -15.60 percentage of WT and -7.82 percentage of WT
CB2R-Quadruple^TM1,7 [1]; log [ligand] (M) -9
  [35S]GTPγS binding: -5.85 percentage of WT and 6.13 percentage of WT and -3.78 percentage of WT
CB2R-I110^3.29L; CB2R I110L mutant, [3H]CP55,940
  pKi: remained similar
CB2R-I110^3.29L; log [ligand] (M) -5
  percentage specific [3H]CP55,940 binding: 3.91% and 2.37% and 4.51%
CB2R-I110^3.29L; log [ligand] (M) -6
  percentage specific [3H]CP55,940 binding: 9.98% and 9.21% and 3.23%
CB2R-I110^3.29L; log [ligand] (M) -7
  percentage specific [3H]CP55,940 binding: 39.17% and 30.03% and 31.46%
CB2R-I110^3.29L; log [ligand] (M) -8
  percentage specific [3H]CP55,940 binding: 86.59% and 79.23% and 85.93%
CB2R-I110^3.29L; log [ligand] (M) -9
  percentage specific [3H]CP55,940 binding: 105.91% and 105.22% and 104.46%
CB2R-I110^3.29L; log [ligand] (M) -10
  percentage specific [3H]CP55,940 binding: 128.52% and 108.89% and 100.89%
CB2R-I110^3.29L; read-out: pKi (converted)
  Ki: 12.6 nM
CB2R-Quadruple^TM1,7 [2]; CB2R Quadruple TM1,7 mutant, <5 when curve fit not finished
  Ki: 158 nM
CB2R-Quadruple^TM1,7 [2]; log [ligand] (M) -5
  percentage specific [3H]CP55,940 binding: 5.19% and 45.81% and -26.38%
CB2R-Quadruple^TM1,7 [2]; log [ligand] (M) -6
  percentage specific [3H]CP55,940 binding: 60.64% and 32.84% and -34.85%
CB2R-Quadruple^TM1,7 [2]; log [ligand] (M) -7
  percentage specific [3H]CP55,940 binding: 75.38% and 92.54% and 80.13%
CB2R-Quadruple^TM1,7 [2]; log [ligand] (M) -8
  percentage specific [3H]CP55,940 binding: 120.94% and 110.56% and 172.31%
CB2R-Quadruple^TM1,7 [2]; log [ligand] (M) -9
  percentage specific [3H]CP55,940 binding: 139.03% and 122.04% and 167.10%
CB2R-Quadruple^TM1,7 [2]; log [ligand] (M) -10
  percentage specific [3H]CP55,940 binding: 103.18% and 81.86% and 136.81%
hCB1R WT [3]; CB1R - WT, 10 µM ligand, replicates 1-3
  percentage specific [3H]CP55,940 binding: 72.08 percentage and 95.14 percentage and 82.84 percentage
hCB1R WT [3]; CB1R WT, 10 µM compound
  Displacement (%) of [3H]CP55,940: 17 ± 7%
hCB1R WT [3]; [3H]CP55,940 displacement
  binding to CB1R: did not bind
hCB1R WT [3]; binding, CB2R vs CB1R
  selectivity (CB2R over CB1R): at least 1000 fold
CB1R-L359^6.51V [4]
  percentage specific [3H]CP55,940 binding: 87.28 percentage and 69.23 percentage and 69.34 percentage
CB1R-H270^ECL2L [5]; CB1R H270ECL2L, 10 µM ligand, replicates 1-3
  percentage specific [3H]CP55,940 binding: 43.52 percentage and 52.40 percentage and 62.26 percentage
CB1R-H270^ECL2L [5]; CB1R H270L, 10 µM compound
  Displacement (%) of [3H]CP55,940: 47 ± 5%
CB1R I267ECL2L [6]; CB1R I267ECL2L, 10 µM ligand, replicates 1-3
  percentage specific [3H]CP55,940 binding: 70.66 percentage and 79.50 percentage and 75.81 percentage
CB1R I267ECL2L [6]; CB1R I267L, 10 µM compound
  Displacement (%) of [3H]CP55,940: 25 ± 3%
CB1R QuadrupleTM1,7 [7]; CB1R Quadruple TM1,7, 10 µM compound
  Displacement (%) of [3H]CP55,940: 26 ± 10%
CB1R QuadrupleTM1,7 [7]; CB1R QuadrupleTM1,7, 10 µM ligand, replicates 1-3
  percentage specific [3H]CP55,940 binding: 70.97 percentage and 58.02 percentage and 92.08 percentage
hCB1R WT [8]; 10 µM agonist
  Agonist-mediated activation: 1.0 ± 0.1 fold over its basal
hCB1R WT [8]; individual replicates
  G protein activation, fold over its basal: 0.954 fold over its basal and 1.145 fold over its basal and 0.987 fold over its basal
CB1R-L359^6.51V [9]; CB1R L359V, 10 µM agonist
  Agonist-mediated activation: 1.1 ± 0.1 fold over its basal
CB1R-L359^6.51V [9]; CB1R L3596.51V, individual replicates
  G protein activation, fold over its basal: 1.125 fold over its basal and 1.294 fold over its basal and 0.998 fold over its basal
CB1R-H270^ECL2L [10]; CB1R H270ECL2L, individual replicates
  G protein activation, fold over its basal: 1.101 fold over its basal and 1.221 fold over its basal and 1.256 fold over its basal
CB1R-H270^ECL2L [10]; CB1R H270L, 10 µM agonist
  Agonist-mediated activation: 1.2 ± 0.0 fold over its basal
CB1R I267ECL2L [11]; CB1R I267ECL2L, individual replicates
  G protein activation, fold over its basal: 1.03 fold over its basal and 1.063 fold over its basal and 1.016 fold over its basal
CB1R I267ECL2L [11]; CB1R I267L, 10 µM agonist
  Agonist-mediated activation: 1.0 ± 0.0 fold over its basal
CB1R D266ECL2E; CB1R D266E, 10 µM agonist
  Agonist-mediated activation: 1.1 ± 0.1 fold over its basal
CB1R D266ECL2E; CB1R D266ECL2E, individual replicates
  G protein activation, fold over its basal: 1.059 fold over its basal and 1.264 fold over its basal and 1.015 fold over its basal
CB1R QuadrupleTM1,7 [12]; CB1R Quadruple TM1,7, 10 µM agonist
  Agonist-mediated activation: 1.2 ± 0.1 fold over its basal
CB1R QuadrupleTM1,7 [12]; CB1R QuadrupleTM1,7, individual replicates
  G protein activation, fold over its basal: 1.167 fold over its basal and 1.343 fold over its basal and 1.151 fold over its basal
